According to patent US20140031275A1, “METHODS OF ERADICATING BACTERIAL CELL POPULATIONS” (priority 2011, published 2014):

What was measured:
[1] = tested on: stationary state S. aureus SA113; assay: Antibiotic action against stationary state S. aureus SA113 (MSSA), cfu counts; format: cell-based; conditions: for effect on stationary population of S. aureus cells: antibiotic alone, 5-day incubation, FIG. 1
Protocol: FIG. 1 is a graph showing antibiotic action against stationary state S. aureus. SA113.
(§1) Referring to FIG. 1, antibiotic action against stationary state S. aureus. SA113, an MSSA commonly used as a S. aureus model strain, was evaluated. S. aureus SA113 was grown in Mueller-Hinton broth for 24 hours. Antibiotics were added at day 0. Time-points were taken every 24 hours. 100 μl of culture was removed, centrifuged for one minute, and the cells were resuspended in PBS. Serial dilutions from neat to 10^−6 were spotted on MHA plates and incubated overnight at 37° C. The results shown in FIG. 1 are the averages of three independent experiments.

[2] = from literature, healthy volunteers; cited from earlier work
MRSA strain = assay: Oxacillin MIC of MRSA strain; format: cell-based, S. aureus; conditions: Staphylococcus aureus
From the text: (§2) Resistance to methicillin and oxacillin is the hallmark of MRSA.

[3] = tested on: stationary MRSA 37 culture; format: cell-based, S. aureus
Protocol: Black line represents the limit of detection
The ability of ADEP 10c to kill an S. aureus MRSA strain was also evaluated.
as §2

S. aureus = assay: MIC against S. aureus; format: cell-based
Protocol: as §1

stationary S. aureus = conditions: high concentrations (24 μg/ml); sterilization not reported; cited from earlier work

CC(=O)NC[C@H]1CN(c2ccc(N3CCOCC3)c(F)c2)C(=O)O1 [linezolid]
effect on stationary population of S. aureus cells [1]: little effect | clinically achievable concentrations [2]: 14.5 µg/mL

Cc1onc(-c2ccccc2)c1C(=O)N[C@@H]1C(=O)N2[C@@H]1SC(C)(C)[C@@H]2C(=O)O [oxacillin]
effect on stationary population of S. aureus cells [1]: little effect | clinically achievable concentrations [2]: 16 µg/mL | MIC (MRSA strain): > 75 µg/mL | killing of clpP mutants of MRSA [3]: killed clpP mutants of MRSA | killing of stationary MRSA cells ([3]; oxacillin alone): no effect

CO[C@H]1/C=C/O[C@@]2(C)Oc3c(C)c(O)c4c(O)c(c(/C=N/N5CCN(C)CC5)c(O)c4c3C2=O)NC(=O)/C(C)=C\C=C\[C@H](C)[C@H](O)[C@@H](C)[C@@H](O)[C@@H](C)[C@H](OC(C)=O)[C@@H]1C [rifampicin]
clinically achievable concentrations [2]: 7.2 µg/mL

L-proline, 3-fluoro-N-[(2E)-1-oxo-2-hepten-1-yl]-L-phenylalanyl-L-seryl-L-prolyl-(2S)-4-methyl-2-piperidinecarbonyl-L-alanyl-, (6→2)-lactone [ADEP 10c]
cell numbers of the stationary population [1]: about 10^4 per ml | killing of stationary cells, ADEP 10c compared with ADEP 4 [1]: more efficacious at killing stationary cells | MIC (S. aureus; S. aureus): 5 µg/mL | MIC (S. aureus; tested with a variety of MSSA and MRSA isolates): 5 µg/mL

CCCCCCCCCC(=O)N[C@@H](Cc1c[nH]c2ccccc12)C(=O)N[C@H](CC(N)=O)C(=O)N[C@@H](CC(=O)O)C(=O)N[C@@H]1C(=O)NCC(=O)N[C@@H](CCCN)C(=O)N[C@@H](CC(=O)O)C(=O)N[C@H](C)C(=O)N[C@@H](CC(=O)O)C(=O)NCC(=O)N[C@H](CO)C(=O)N[C@@H]([C@H](C)CC(=O)O)C(=O)N[C@@H](CC(=O)c2ccccc2N)C(=O)O[C@@H]1C [Daptomycin]
activity against stationary S. aureus (stationary S. aureus): some activity

O=C(O)c1cn(C2CC2)c2cc(N3CCNCC3)c(F)cc2c1=O [ciprofloxacin]
effect on stationary population of S. aureus cells [1]: little effect
